In patent publication US20230085307A1, “PYRIDAZINONE COMPOUND AND HERBICIDE” (NISSAN CHEMICAL CORPORATION, priority 2019, published 2023):

How the values were obtained:
[1] = system: oval-leafed pondweed; assay: Test Example 1: herbicidal activity, application before weed generation under submerged conditions (Table 16, symbol C); type: in vivo, oval-leafed pondweed (Monochoria vaginalis); details: amount of applied herbicide 320 g/ha
Method in brief: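 Emulsion formulation, water-diluted to set dose, was put onto the flooded surface (4 cm depth, alluvial soil) the same day weeds were sown and 2.5-leaf rice transplanted. After 3 weeks at 25-30 °C under glass, each species was rated 0 (≤5% kill) to 5 (≥90% kill).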

[2] = system: late watergrass; assay: Test Example 2: herbicidal activity, application during weed generation under submerged conditions (Table 17, symbol A); type: in vivo, late watergrass (Echinochloa oryzicola); details: AAH 320 g/ha; application during weed generation, submerged conditions
Method in brief: (§1)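 Steps: fill Wagner pots with alluvial soil; add water to give 4 cm depth; sow the species mixed; grow under glass at 25–30° C.; at 1–2 leaves apply water-diluted emulsion formulation to the water surface at a fixed herbicide amount; score after 3 weeks.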

[3] = system: Japanese bulrush; assay: Test Example 2: herbicidal activity, application during weed generation under submerged conditions (Table 17, symbol B); type: in vivo, Japanese bulrush (Schoenoplectus juncoides); details: AAH 320 g/ha; application during weed generation, submerged conditions
Method in brief: as §1

[4] = system: oval-leafed pondweed; assay: Test Example 2: herbicidal activity, application during weed generation under submerged conditions (Table 17, symbol C); type: in vivo, oval-leafed pondweed (Monochoria vaginalis); details: AAH 320 g/ha; application during weed generation, submerged conditions
Method in brief: as §1

[5] = system: barnyard grass; assay: Test Example 4: herbicidal effect by soil treatment (Table 19, symbol H); type: in vivo, barnyard grass (Echinochloa crus-galli); details: amount of applied herbicide 320 g/ha
Method in brief: (§2)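 Three weeks of greenhouse growth at 25° C. to 30° C. followed a uniform surface spray of water-diluted emulsion at a predetermined herbicide amount. Seeds had been sown beforehand under about 1.5 cm of sterilized diluvial soil. Grading followed criteria set out in an earlier test.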

[6] = system: wild oat; assay: Test Example 4: herbicidal effect by soil treatment (Table 19, symbol I); type: in vivo, wild oat (Avena fatua); details: amount of applied herbicide 320 g/ha
Method in brief: as §2

[7] = system: Italian ryegrass; assay: Test Example 4: herbicidal effect by soil treatment (Table 19, symbol K); type: in vivo, Italian ryegrass (Lolium multiflorum); details: amount of applied herbicide 320 g/ha
Method in brief: as §2

[8] = system: windgrass; assay: Test Example 4: herbicidal effect by soil treatment (Table 19, symbol L); type: in vivo, windgrass (Apera spica-venti); details: amount of applied herbicide 320 g/ha
Method in brief: as §2

[9] = system: velvetleaf; assay: Test Example 4: herbicidal effect by soil treatment (Table 19, symbol M); type: in vivo, velvetleaf (Abutilon theophrasti); details: amount of applied herbicide 320 g/ha
Method in brief: as §2

[10] = system: lambsquarters; assay: Test Example 4: herbicidal effect by soil treatment (Table 19, symbol O); type: in vivo, lambsquarters (Chenopodium album); details: amount of applied herbicide 320 g/ha
Method in brief: as §2

[11] = system: chickweed; assay: Test Example 4: herbicidal effect by soil treatment (Table 19, symbol P); type: in vivo, common chickweed (Stellaria media); details: amount of applied herbicide 320 g/ha
Method in brief: as §2

[12] = system: false cleavers; assay: Test Example 4: herbicidal effect by soil treatment (Table 19, symbol Q); type: in vivo, false cleavers (Galium spurium); details: amount of applied herbicide 320 g/ha
Method in brief: as §2

[13] = system: persian speedwell; assay: Test Example 4: herbicidal effect by soil treatment (Table 19, symbol R); type: in vivo, Persian speedwell (Veronica persica); details: amount of applied herbicide 320 g/ha
Method in brief: as §2

[14] = system: southern crabgrass; assay: Test Example 5: herbicidal effect by foliage application, plastic box (Table 20, symbol F); type: in vivo, southern crabgrass (Digitaria ciliaris); details: foliage application, 320 g/ha, three weeks after application
Method in brief: (§3)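 Plants sown in sterilized diluvial soil and grown 14 days in a greenhouse at 25° C to 30° C, then sprayed on the foliage with the compound's emulsion diluted in water to a predetermined herbicide amount. Injury to weeds and crops scored three weeks after application on a visual rating scale.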

[15] = system: wild oat; assay: Test Example 5: herbicidal effect by foliage application, plastic box (Table 20, symbol I); type: in vivo, wild oat (Avena fatua); details: foliage application, 320 g/ha, three weeks after application
Method in brief: as §3

[16] = system: chickweed; assay: Test Example 5: herbicidal effect by foliage application, plastic box (Table 20, symbol P); type: in vivo, common chickweed (Stellaria media); details: foliage application, 320 g/ha, three weeks after application
Method in brief: as §3

[17] = system: false cleavers; assay: Test Example 5: herbicidal effect by foliage application, plastic box (Table 20, symbol Q); type: in vivo, false cleavers (Galium spurium); details: foliage application, 320 g/ha, three weeks after application
Method in brief: as §3

Structure (SMILES) | Herbicidal effect, C: oval-leafed pondweed [1] | herbicidal effect rating, A: late watergrass [2] | herbicidal effect rating, B: Japanese bulrush [3] | herbicidal effect rating, C: oval-leafed pondweed [4] | herbicidal effect, H: barnyard grass [5] | herbicidal effect, I: wild oat [6] | herbicidal effect, K: Italian ryegrass [7] | herbicidal effect, L: windgrass [8] | herbicidal effect, M: velvetleaf [9] | herbicidal effect, O: lambsquarters [10] | herbicidal effect, P: chickweed [11] | herbicidal effect, Q: false cleavers [12] | herbicidal effect, R: persian speedwell [13] | F: southern crabgrass, herbicidal effect grade [14] | I: wild oat, herbicidal effect grade [15] | P: chickweed, herbicidal effect grade [16] | Q: false cleavers, herbicidal effect grade [17]
COc1ccc(-c2sc3cc(F)ccc3c2-c2c(O)c(C)nn(C)c2=O)cc1 [3-005] | 4 (Herbicidal rate of 70% or more and less than 90%) | 3 (Herbicidal rate of 40% or more and less than 70%) | 3 (Herbicidal rate of 40% or more and less than 70%) | 4 (Herbicidal rate of 70% or more and less than 90%) | 3 (Herbicidal rate of 40% or more and less than 70%) | 0 (Herbicidal rate of 5% or less (almost no effect)) | 5 (Herbicidal rate of 90% or more (almost completely withered)) | 0 (Herbicidal rate of 5% or less (almost no effect)) | 3 (Herbicidal rate of 40% or more and less than 70%) | 4 (Herbicidal rate of 70% or more and less than 90%) | 5 (Herbicidal rate of 90% or more (almost completely withered)) | 0 (Herbicidal rate of 5% or less (almost no effect)) | 4 (Herbicidal rate of 70% or more and less than 90%) | 3 (Herbicidal rate of 40% or more and less than 70%) | 3 (Herbicidal rate of 40% or more and less than 70%) | 5 (Herbicidal rate of 90% or more (almost completely withered)) | 4 (Herbicidal rate of 70% or more and less than 90%)
CCCC(=O)Oc1c(C)nn(C)c(=O)c1-c1c(-c2ccccc2OCC)sc2cc(F)ccc12 [3-007] | 4 (Herbicidal rate of 70% or more and less than 90%) | 3 (Herbicidal rate of 40% or more and less than 70%) | 4 (Herbicidal rate of 70% or more and less than 90%) | 4 (Herbicidal rate of 70% or more and less than 90%) | 0 (Herbicidal rate of 5% or less (almost no effect)) | 2 (Herbicidal rate of 20% or more and less than 40%) | 4 (Herbicidal rate of 70% or more and less than 90%) | 5 (Herbicidal rate of 90% or more (almost completely withered)) | 4 (Herbicidal rate of 70% or more and less than 90%) | 0 (Herbicidal rate of 5% or less (almost no effect)) | 5 (Herbicidal rate of 90% or more (almost completely withered)) | 5 (Herbicidal rate of 90% or more (almost completely withered)) | 4 (Herbicidal rate of 70% or more and less than 90%) | 5 (Herbicidal rate of 90% or more (almost completely withered)) | 5 (Herbicidal rate of 90% or more (almost completely withered)) | 5 (Herbicidal rate of 90% or more (almost completely withered)) | 5 (Herbicidal rate of 90% or more (almost completely withered))
